# Results published in US20120142701A1 (priority 2010, published 2012).
# Columns and labels:
# nucleoprotein [1] = molecular target: nucleoprotein (Influenza A virus, UniProt P15682); experiment: cellular immunofluorescence microscopy in infected A549 cells; format: cell-based, influenza A/WSN/33 virus
# nucleoproteins [2] = molecular target: T1, nucleoproteins (Influenza A virus, UniProt P03466); experiment: cell-based aggregation assay (immunofluorescence microscopy)
# Text: A cell-based method for identifying compounds that promote aggregation includes:
# a.) treating cells with one or more test compounds for a period of time;
# b.) adding a fixing solution to stop protein translation;
# c.) treating the cells with a fluorescent antibody that binds specifically to a protein, glycoprotein, or protein-nucleic acid complex;
# d.) determining the presence or absence of aggregation,
# wherein if aggregation is present in (d), the test compound is identified as a compound that may promote aggregation.
# 1. 25 μl of culture medium is added into each well of a 384-well plate followed by the addition of a test compound from a chemical library in each well. Then 25 μl of cells (6×10^3 cells/well) with undesirable physiological conditions in DMEM with 10% fetal bovine serum are seeded into each assay well. Plates are incubated at 37° C. in a 5% CO2 humid atmosphere for 1 day.
# 2. The supernatant is removed from each well, and washed with 50 μl of phosphate-buffered saline (PBS).
# 3. The PBS is aspirated off and 50 μl of a cold (4° C.) fixing solution of 3.65% formaldehyde in PBS was added to each well. The plate was incubated for 1 h at 4° C.
# 4. The fixing solution was aspirated off and 50 μl of 0.1% Nonidet P-40 solution in PBS was added to each well. […]
# 8. The aggregation of proteins, glycoproteins, or protein-nucleic acid complexes is detected by immunofluorescence microscopy.
# A/WSN/33 virus = experiment: multicycle growth assay, viral titres by plaques assay in MDCK cells; format: cell-based, influenza A H1N1 (A/WSN/33); conditions: MDCK cells infected with A/WSN/33 at 0.001 MOI
# Procedure: FIG. 3 is a plot of the antiviral activity of an aggregation-inducing agent nucleozin in multicycle growth assays. Madin-Darby Canine Kidney (MDCK) cells were infected with A/WSN/33 virus at 0.001 MOI in the presence or absence of nucleozin (0.1 or 1 μM). Viral titres were determined by plaques assay at the time indicated.
# [3] = system: A/Vietnam/1194/04 H5N1 virus; format: in vivo, BALB/c female mice
# nucleoproteins [4] = molecular target: T1, nucleoproteins; experiment: cell-free aggregation assay (aggregation plate reader); format: biochemical
# Procedure: A cell-free method for identifying compounds that promote aggregation of proteins, glycoproteins, or protein-nucleic acid complexes includes:
# a.) combining a mixture of bovine serum albumin and one or more proteins, glycoproteins, or protein-nucleic acid complexes;
# b.) adding the mixture of (a) to a multi-well plate;
# c.) transferring a test compound to one or more wells of the multi-well plate;
# d.) incubating the plate of (c); and
# e.) determining the presence of aggregation,
# wherein if aggregation is present in (e), the test compound is identified as a compound that may promote aggregation.
# 1. A mixture of 1 μM proteins, glycoproteins, or protein-nucleic acid complexes in 40 μg/ml bovine serum albumin is prepared.
# 2. A portion (20 μl) of the reaction mixture is added to each well of a 384-well mircotitre plate using automated liquid dispenser.
# 3. Chemicals from a chemical library are assayed by transferring approximately 100 nl to each assay well by a 384 solid pin array.
# 4. The plates are incubated at 37° C. for 6 hours and the extent of chemical induced aggregation is recorded by an aggregation plate reader.
# nucleoprotein [5] = format: biochemical
# Chain of nucleoprotein (Influenza A virus, UniProt P15682) (P15682 whole entry): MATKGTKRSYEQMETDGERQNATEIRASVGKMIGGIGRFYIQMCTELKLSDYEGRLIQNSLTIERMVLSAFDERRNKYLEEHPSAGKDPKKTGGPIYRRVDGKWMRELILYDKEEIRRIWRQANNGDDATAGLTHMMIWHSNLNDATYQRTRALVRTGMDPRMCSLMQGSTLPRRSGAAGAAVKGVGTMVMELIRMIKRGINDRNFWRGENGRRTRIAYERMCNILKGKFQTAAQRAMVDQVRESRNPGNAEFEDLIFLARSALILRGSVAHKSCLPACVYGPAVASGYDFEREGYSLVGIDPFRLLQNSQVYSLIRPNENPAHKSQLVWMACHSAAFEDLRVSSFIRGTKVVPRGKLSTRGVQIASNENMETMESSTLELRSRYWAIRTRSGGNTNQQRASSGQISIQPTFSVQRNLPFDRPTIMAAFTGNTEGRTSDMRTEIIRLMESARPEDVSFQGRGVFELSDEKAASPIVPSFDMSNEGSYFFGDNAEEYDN
# T1 sequence (P03466 whole entry): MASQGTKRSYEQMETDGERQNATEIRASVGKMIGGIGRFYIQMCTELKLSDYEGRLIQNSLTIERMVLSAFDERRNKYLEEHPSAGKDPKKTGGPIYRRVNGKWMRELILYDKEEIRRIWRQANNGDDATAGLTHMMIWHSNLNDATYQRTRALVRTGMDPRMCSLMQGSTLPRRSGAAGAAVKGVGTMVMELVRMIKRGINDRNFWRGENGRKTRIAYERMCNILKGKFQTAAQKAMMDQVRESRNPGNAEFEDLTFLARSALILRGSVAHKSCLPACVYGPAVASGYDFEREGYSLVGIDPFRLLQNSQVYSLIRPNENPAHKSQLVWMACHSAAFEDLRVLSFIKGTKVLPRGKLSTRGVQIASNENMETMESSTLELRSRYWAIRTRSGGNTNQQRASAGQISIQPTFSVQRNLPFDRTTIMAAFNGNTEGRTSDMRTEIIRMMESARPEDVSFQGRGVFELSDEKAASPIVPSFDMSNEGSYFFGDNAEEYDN
substance,measurement,setting,value
nucleozin,nucleoprotein localisation at 3 hours post infection,"nucleoprotein [1]; influenza A/WSN/33, 3 hours post infection",“halo” of dense nucleoprotein aggregates surrounding the perinuclear region in the cytoplasm
same,nucleoprotein localisation at 24 hours after infection,"nucleoprotein [1]; influenza A/WSN/33, 24 hours after infection",nucleoprotein trapped in the cytoplasm was seen scattered randomly in host cells
same,nucleoprotein accumulation in the nucleus,nucleoprotein [1]; influenza A/WSN/33 virus infection,potent antagonist of nucleoprotein accumulation in the nucleus
same,aggregation of nucleoproteins,nucleoproteins [2],aggregation of nucleoproteins was observed
same,viral growth (viral titres),A/WSN/33 virus; nucleozin 0.1 μM,suppressed viral growth
same,virus production (viral titres),A/WSN/33 virus; nucleozin at 1 (unit cut off in the text),completely inhibited virus production
same,survival rate versus untreated controls,[3]; mice after inoculation by influenza A virus H5N1 strain A/Vietnam/1194/04,significantly higher survival rate
same,animals surviving for more than 21 days,"[3]; mice, two doses of nucleozin (250 nmole per dose) per day i.p. for 5 days, H5N1 A/Vietnam/1194/04 i.n.",90%
same,aggregation of nucleoproteins,nucleoproteins [4],aggregation of nucleoproteins was observed
same,amount of nucleoprotein running into the native gradient gel,nucleoprotein [5],reduces the amount of nucleoprotein running into the native gradient gel in a dose-dependent manner
same,nucleoprotein-RNA complex that runs into the 4-12% polyacrylamide gradient gel,nucleoprotein [5],dose-dependent reduction
